In patent US10155021B2, “Antimicrobial 4-oxoquinolizines” (Emergent Product Development Gaithersburg Inc., priority 2011, dated 2018):
Like-named read-outs stand apart in the source and are kept apart here.

Legend:
[1] = tested on: resistant strains of A. baumannii and one strain of Acinetobacter sp.; assay: MIC without and with sub-inhibitory polymyxin B, whole panel / MIC ranges (Example 4; also strains not listed separately); format: cell-based; conditions: Acinetobacter baumannii
[2] = tested on: A. baumannii J2; assay: MIC without and with sub-inhibitory polymyxin B (Example 4); format: cell-based, Acinetobacter baumannii; conditions: Acinetobacter baumannii, J2, A. baumannii J2; without polymyxin B; 1st experiment; read-out: MIC without PB
[3] = tested on: Acinetobacter sp. (H064200250); assay: as above; format: cell-based; conditions: Acinetobacter, without polymyxin B, read-out: MIC without PB
[4] = tested on: A. baumannii A329; assay: as above; format: cell-based, Acinetobacter baumannii; conditions: Acinetobacter baumannii
[5] = tested on: A. baumannii A387; assay: as above; format: cell-based, Acinetobacter baumannii; conditions: Acinetobacter baumannii, A387, A. baumannii A387, without polymyxin B, read-out: MIC without PB
[6] = tested on: A. baumannii A401; assay: as above; format: cell-based, Acinetobacter baumannii; conditions: Acinetobacter baumannii, A401, A baumannii A 401, without polymyxin B, read-out: MIC without PB
[7] = tested on: A. baumannii A472; assay: as above; format: cell-based, Acinetobacter baumannii; conditions: for MIC: Acinetobacter baumannii, A472, A. baumannii A472, without polymyxin B, read-out: MIC without PB
[8] = tested on: A. baumannii A473; assay: as above; format: cell-based, Acinetobacter baumannii; conditions: Acinetobacter baumannii, A473, A. baumannii A473, without polymyxin B
[9] = tested on: A. baumannii A489; assay: as above; format: cell-based, Acinetobacter baumannii; conditions: Acinetobacter baumannii, A489, A. baumannii A489, without polymyxin B
[10] = tested on: A. baumannii ATCC 19606; assay: Preliminary MBC without and with sub-inhibitory polymyxin B (Example 4); format: cell-based, Acinetobacter baumannii; conditions: Acinetobacter baumannii, ATCC19606, A. baumannii ATCC 19606; without polymyxin B; preliminary MBC; 1st experiment; read-out: MBC without PB
[11] = tested on: A. baumannii J2; assay: as above; format: cell-based, Acinetobacter baumannii; conditions: Acinetobacter baumannii, J2, A. baumannii J2; without polymyxin B; preliminary MBC; 1st experiment; read-out: MBC without PB
[12] = tested on: Acinetobacter sp. (H064200250); assay: as above; format: cell-based; conditions: Acinetobacter, without polymyxin B, preliminary MBC, read-out: MBC without PB
Method: The plates were incubated for 18-20 hours at 37° C. The MBC was read as the lowest concentration at which colony growth was ca. 90% less than the positive control (i.e. usually where single colonies or no colonies were observed).

[13] = tested on: A. baumannii A329; assay: as above; format: cell-based, Acinetobacter baumannii; conditions: Acinetobacter baumannii, A329, A. baumannii A329, without polymyxin B, 1st experiment, read-out: MBC without PB
[14] = tested on: A. baumannii A387; assay: as above; format: cell-based, Acinetobacter baumannii; conditions: Acinetobacter baumannii, A387, A. baumannii A387, without polymyxin B, read-out: MBC without PB
[15] = tested on: A. baumannii A401; assay: as above; format: cell-based, Acinetobacter baumannii; conditions: Acinetobacter baumannii, A401, A baumannii A 401; without polymyxin B; preliminary MBC; 1st experiment; read-out: MBC without PB
[16] = tested on: A. baumannii A472; assay: as above; format: cell-based, Acinetobacter baumannii; conditions: Acinetobacter baumannii, A472, A. baumannii A472, without polymyxin B, read-out: MBC without PB
[17] = tested on: A. baumannii A473; assay: as above; format: cell-based, Acinetobacter baumannii; conditions: Acinetobacter baumannii, A473, A. baumannii A473, without polymyxin B, read-out: MBC without PB
[18] = tested on: A. baumannii A489; assay: as above; format: cell-based, Acinetobacter baumannii; conditions: Acinetobacter baumannii, A489, A. baumannii A489, without polymyxin B, read-out: MBC without PB
[19] = tested on: Acinetobacter spp. H064200250; assay: MIC determination for Acinetobacter strains (Example 3); format: cell-based, Acinetobacter sp.; conditions: LEV R, CIP R, MRP R, IMP I
[20] = tested on: A. baumannii A489; assay: as above; format: cell-based; conditions: LEV R, CIP R, MRP R, IMP R, AMK R, TET R
[21] = tested on: A. baumannii A390; assay: as above; format: cell-based; conditions: LEV R, CIP R, MRP R, IPM I, AMK R, TET I
[22] = tested on: A. baumannii A 401; assay: as above; format: cell-based; conditions: A401, LEV R, CIP R, AMK R, TET R
[23] = tested on: A. baumannii A472; assay: as above; format: cell-based; conditions: LEV R, CIP R, MRP I, IMP I, AMK R, TET R
[24] = tested on: A. baumannii A473; assay: as above; format: cell-based; conditions: LEV R, CIP R, MRP R, IMP R, AMK R, TET R
[25] = tested on: 11 strains of A. baumannii and one strain of Acinetobacter sp.; assay: Preliminary MBC without and with sub-inhibitory polymyxin B, whole panel (Example 4; also strains not listed separately); format: cell-based; conditions: Acinetobacter baumannii, NCTC13301, A. baumannii NCTC 13301, without polymyxin B, 2nd experiment, read-out: MBC without PB
[26] = tested on: A. baumannii ATCC 19606; assay: MIC without and with sub-inhibitory polymyxin B (Example 4); format: cell-based, Acinetobacter baumannii; conditions: Acinetobacter baumannii, ATCC19606, A. baumannii ATCC 19606; without polymyxin B; 2nd experiment; second reading marked *, mark not explained; read-out: MIC without PB, value in parentheses marked *
[27] = tested on: A. baumannii A390; assay: as above; format: cell-based, Acinetobacter baumannii; conditions: Acinetobacter baumannii, A390, A. baumannii A390, without polymyxin B, read-out: MIC without PB
[28] = read-out: MIC range without PB 01-10-2008 n = 8, without polymyxin B, 1st experiment, 8 strains
[29] = Acinetobacter spp. H064200250, 1st experiment
[30] = 1st experiment, read-out: MIC without PB
[31] = 2nd experiment, MIC read with alamar blue, read-out: MIC without PB, read with alamar blue
[32] = 2nd experiment, visual reading, read-out: MIC without PB

Cc1c(-c2ccc(N)c(F)c2)c(F)cn2c(=O)c(C(=O)O)cc(C3CC3)c12 [Compound 17, 8-(3-fluoro-4-amino-phenyl)-1-cyclopropyl-7-fluoro-9-methyl-4-oxo-quinolizine-3-carboxylic acid]
8 µg/mL: MIC [3, 29] | MIC ([4]; A329, A. baumannii A329, without polymyxin B, 1st experiment, read-out: MIC without PB) | MIC [9, 30] | MBC [12, 29] | MBC [13] | MBC [15]
2 µg/mL: MBC ([14]; 1st experiment)
4 µg/mL: MIC [2] | MIC ([6]; 1st experiment) | MIC ([7]; 1st experiment) | MIC [8, 30] | MBC [11] | MBC ([16]; 1st experiment) | MBC ([17]; 1st experiment) | MBC ([18]; 1st experiment)
1 to 16 µg/mL: MIC [1, 28]
1 µg/mL: MIC ([5]; 1st experiment) | MBC [10]

C[C@@H](O)[C@H]1C(=O)N2C(C(=O)O)=C(S[C@@H]3CN[C@H](C(=O)N(C)C)C3)[C@H](C)[C@H]12 [Meropenem, reference compound]
32 µg/mL: MIC [19] | MIC [21] | MIC [22] | MIC ([1]; NCTC13301, A. baumannii NCTC 13301, without polymyxin B, 1st experiment, read-out: MIC without PB) | MIC [3, 29] | MIC ([27]; 1st experiment) | MIC ([27]; 2nd experiment, visual reading) | MIC ([6]; 1st experiment) | MIC [8, 31] | MIC [9, 31]
1 to 32 µg/mL: MIC [1, 28]
≥ 64 µg/mL: MIC ratio without/with polymyxin B ([7]; A. baumannii A472, ratio MIC without PB to MIC + PB, PB […], 2nd experiment)
64 µg/mL: MIC ([1]; NCTC13301, A. baumannii NCTC 13301, without polymyxin B, 2nd experiment, visual reading, read-out: MIC without PB) | MBC [25] | MIC [26] | MIC ([4]; A329, read-out: MIC +0.06 μg/ml PB, read with alamar blue, A. baumannii A329, +0.06 μg/ml polymyxin B, 2nd experiment, MIC read with alamar blue) | MBC ([17]; 1st experiment)
16 µg/mL: MIC [20] | MIC [24] | MIC ([3]; Acinetobacter spp. H064200250 (OXA51), 2nd experiment, visual reading) | MIC ([6]; 2nd experiment, visual reading) | MIC [8, 30] | MIC [8, 32] | MIC [9, 30] | MIC [9, 32] | MBC ([12]; Acinetobacter spp. H064200250 (OXA51), 2nd experiment) | MBC [12, 29] | MBC [15] | MBC ([17]; 2nd experiment) | MBC ([18]; 2nd experiment)
8 µg/mL: MIC [23] | MIC ([5]; 2nd experiment, visual reading) | MIC ([7]; 1st experiment) | MIC ([7]; 2nd experiment, visual reading) | MBC ([14]; 2nd experiment) | MBC ([16]; 1st experiment) | MBC ([16]; 2nd experiment) | MBC ([18]; 1st experiment)
